In PMC11850406, “Large-scale screening of HIV-1 T-cell epitopes restricted by 12 prevalent HLA-A allotypes in Northeast Asia and universal detection of HIV-1-specific CD8^+ T cells” (Frontiers in Microbiology, 2025):
Read-outs that look alike come from different tables or passages of the source. Where no end group is shown, it is not given here.

Columns and labels:
HLA-A3303 = HLA-A3303 (Homo sapiens, UniProt P04439, A270S/D185E/E176V/E277Q/E87N/F33T/G231S/H175R/I121M/I218V/I322F/K168Q/L300P/L318F/M331R/P217A/Q86R/Q94H/R138Q/T323A/T345S/T97I/V358M); experiment: Peptide competitive binding assay, HMy2.CIR cells expressing A3303; details: for inhibition at 5 µM: peptide 5 μM vs FITC-labeled reference peptide 300 nM; for inhibition at 5 µM / inhibition at 15 µM: 24 h, 4°C, flow cytometry; for inhibition at 15 µM: peptide 15 μM vs FITC-labeled reference peptide 300 nM; for IC50: read-out: Affinity
HLA-A1101 = target: T1, HLA-A1101 (Homo sapiens, UniProt P04439, A114D/D185E/E176A/F33Y/L180Q/S129P/T187R); experiment: cell-based; type: binding; details: for inhibition at 5 µM / inhibition at 15 µM: 24 h; for inhibition at 5 µM: read-out: 5-μM inhibition (%); for inhibition at 15 µM: read-out: 15-μM inhibition (%)
T1 construct: expressed in transfected cells; host or cells: HMy2.CIR

HLA-A1102 = HLA-A1102 (Homo sapiens, UniProt P04439, A114D/D185E/E176A/E43K/F33Y/L180Q/S129P/T187R); experiment: cell-based; type: binding; details: 24 h; for inhibition at 5 µM: read-out: 5-μM inhibition (%); for inhibition at 15 µM: read-out: 15-μM inhibition (%)
HLA-A3101 = target: T2, HLA-A3101 (Homo sapiens, UniProt P04439, A270S/D185E/E176V/E277Q/F33T/G231S/G80R/H175R/I121M/I218V/I322F/K168Q/L300P/L318F/M331R/P217A/Q94H/R138Q/T323A/T345S/T97I/V358M); experiment: Peptide competitive binding assay, HMy2.CIR cells expressing A3101; details: for IC50: read-out: Affinity
T2 construct: expressed in transfected cells; host or cells: HMy2.CIR

HLA-A3001 = target: T3, HLA-A3001 (Homo sapiens, UniProt P04439, D140H/D185E/E176W/F33S/G80R/H175R/K168Q/R138E/R41S); experiment: cell-based; type: binding
T3 construct: expressed in transfected cells; host or cells: HMy2.CIR

HLA-A0206 = target: T4, HLA-A0206 (Homo sapiens, UniProt P04439, D140Y/D185E/D98H/E176V/E277Q/F33Y/G131W/G231S/I119V/I121R/I166T/I218V/L300P/L318F/N151K/N90K/P208A/P217A/Q86G/Q94H/R138H/R169H/T345S); experiment: Peptide competitive binding assay, HMy2.CIR cells expressing A0206; details: 24 h, 4°C, flow cytometry; for 5-μM inhibition (%): peptide 5 μM vs FITC-labeled reference peptide 300 nM; for 15-μM inhibition (%): peptide 15 μM vs FITC-labeled reference peptide 300 nM
T4 construct: expressed in transfected cells; host or cells: HMy2.CIR

HLA-A0207 = target: T5, HLA-A0207 (Homo sapiens, UniProt P04439, D140Y/D185E/D98H/E176V/E277Q/G131W/G231S/I119V/I121R/I166T/I218V/L300P/L318F/N151K/N90K/P208A/P217A/Q86G/Q94H/R138H/R169H/T345S/Y123C); experiment: Peptide competitive binding assay, HMy2.CIR cells expressing A0207; details: 24 h, 4°C, flow cytometry
T5 construct: expressed in transfected cells; host or cells: HMy2.CIR

[1] = A3101, peptide 5 μM vs FITC-labeled reference peptide 300 nM, 24 h, 4°C, flow cytometry
[2] = A3101, peptide 15 μM vs FITC-labeled reference peptide 300 nM, 24 h, 4°C, flow cytometry
[3] = A1102, peptide 5 μM vs FITC-labeled reference peptide 300 nM, 4°C, flow cytometry
[4] = A1102, peptide 15 μM vs FITC-labeled reference peptide 300 nM, 4°C, flow cytometry
[5] = A3303, class from inhibition at 5 and 15 μM of FITC-labeled reference peptide binding
[6] = A1101, peptide 5 μM vs FITC-labeled reference peptide 300 nM, 4°C, flow cytometry
[7] = A1101, peptide 15 μM vs FITC-labeled reference peptide 300 nM, 4°C, flow cytometry
[8] = A3001, peptide 5 μM vs FITC-labeled reference peptide 300 nM, 24 h, 4°C, flow cytometry
[9] = A3001, peptide 15 μM vs FITC-labeled reference peptide 300 nM, 24 h, 4°C, flow cytometry

Compound: CC[C@H](C)[C@H](NC(=O)[C@H](Cc1ccccc1)NC(=O)[C@@H](NC(=O)[C@H](C)N)C(C)C)C(=O)N[C@@H](Cc1c[nH]cn1)C(=O)N[C@@H](CC(N)=O)C(=O)N[C@@H](Cc1ccccc1)C(=O)N[C@@H](CCCCN)C(=O)N[C@@H](CCCNC(=N)N)C(=O)O [Peptide P41]
- inhibition at 5 µM (HLA-A3303; A3303): 71%
- inhibition at 15 µM (HLA-A3303; A3303): 89.8%
- IC50 (HLA-A3303): < 5 µM
- IC50 (HLA-A1101): < 5 µM
- inhibition at 5 µM (HLA-A1101): 83.8%
- inhibition at 15 µM (HLA-A1101): 86.8%
- inhibition at 5 µM (HLA-A1102): 1.73%
- inhibition at 15 µM (HLA-A1102): 21.5%
- inhibition at 5 µM (HLA-A3101; [1]): 63.4%
- inhibition at 15 µM (HLA-A3101; [2]): 96%
- IC50 (HLA-A3101): < 5 µM

Compound: AAGTGSSSK [Peptide P86]
- 5-μM inhibition (%) (HLA-A1102; [3]): 1.04%
- 15-μM inhibition (%) (HLA-A1102; [4]): 3.12%

Compound: ASRELERFA [Peptide P90]
- IC50 (HLA-A3001): 5 to 15 µM
- inhibition at 5 µM (HLA-A3001; A3001, peptide 5 μM vs FITC-labeled reference peptide 300 nM, 24 h, 4°C, flow cytometry, read-out: 5-μM inhibition (%)): 17.7%
- inhibition at 15 µM (HLA-A3001; A3001, peptide 15 μM vs FITC-labeled reference peptide 300 nM, 24 h, 4°C, flow cytometry, read-out: 15-μM inhibition (%)): 58%

Compound: ATLWCVHQR [Peptide P34]
- IC50 (HLA-A3303; [5]): < 5 µM
- inhibition at 5 µM (HLA-A3303; A3303): 63.8%
- inhibition at 15 µM (HLA-A3303; A3303): 77.2%
- IC50 (HLA-A1101; A1101, class from inhibition at 5 and 15 μM of FITC-labeled reference peptide binding, read-out: Affinity): 5 to 15 µM
- inhibition at 5 µM (HLA-A1101; [6]): 44%
- inhibition at 15 µM (HLA-A1101; [7]): 77.8%
- inhibition at 5 µM (HLA-A1102; [3]): 3.12%
- inhibition at 15 µM (HLA-A1102; [4]): 13.8%

Compound: FVNTPPLVK [Peptide P44]
- IC50 (HLA-A1101): < 5 µM
- inhibition at 5 µM (HLA-A1101; [6]): 84.5%
- inhibition at 15 µM (HLA-A1101; [7]): 92.7%
- inhibition at 5 µM (HLA-A1102; [3]): 6.01%
- inhibition at 15 µM (HLA-A1102; [4]): 26.1%

Compound: IQNFRVYYR [Peptide P112]
- inhibition at 5 µM (HLA-A3303; A3303): 48.7%
- inhibition at 15 µM (HLA-A3303; A3303): 55.1%
- IC50 (HLA-A3303): 5 to 15 µM
- inhibition at 5 µM (HLA-A3101; [1]): 20.1%
- inhibition at 15 µM (HLA-A3101; [2]): 25.7%

Compound: KAREFSSER [Peptide P100]
- IC50 (HLA-A3101; A3101, class from inhibition at 5 and 15 μM of FITC-labeled reference peptide binding): 5 to 15 µM
- inhibition at 5 µM (HLA-A3101; [1]): 42.9%
- inhibition at 15 µM (HLA-A3101; [2]): 95.1%

Compound: KIILVAVHV [Peptide P75]
- 5-μM inhibition (%) (HLA-A0206): 3.69%
- 15-μM inhibition (%) (HLA-A0206): 5.11%

Compound: KIVRMYSPV [Peptide P71]
- 5-μM inhibition (%) (HLA-A0206): 6.54%
- 15-μM inhibition (%) (HLA-A0206): 14.21%

Compound: KVILVAVHV [Peptide P74]
- 5-μM inhibition (%) (HLA-A0206): 20.64%

Compound: KVLKQVTEK [Peptide P87]
- 5-μM inhibition (%) (HLA-A1102; [3]): 5.66%
- 15-μM inhibition (%) (HLA-A1102; [4]): 16.76%

Compound: KVVPRRKAK [Peptide P93]
- 5-μM inhibition (%) (HLA-A3001; [8]): 16.92%
- 15-μM inhibition (%) (HLA-A3001; [9]): 41.10%

Compound: KVYLSWVPA [Peptide P94]
- 5-μM inhibition (%) (HLA-A3001; [8]): 27.40%
- 15-μM inhibition (%) (HLA-A3001; [9]): 45.93%

Compound: LVDTIAIAV [Peptide P77]
- 5-μM inhibition (%) (HLA-A0207; peptide 5 μM vs FITC-labeled reference peptide 300 nM): 9.36%
- 15-μM inhibition (%) (HLA-A0207; peptide 15 μM vs FITC-labeled reference peptide 300 nM): 23.40%

Compound: MAHQPLSPR [Peptide P111]
- IC50 (HLA-A3303; [5]): < 5 µM
- inhibition at 5 µM (HLA-A3303; A3303): 78.2%
- inhibition at 15 µM (HLA-A3303; A3303): 89.2%
- inhibition at 5 µM (HLA-A1102; [3]): 4.16%
- inhibition at 15 µM (HLA-A1102; [4]): 20.6%

Compound: MTKILEPFR [Peptide P102]
- inhibition at 5 µM (HLA-A3303; A3303): 69.5%
- inhibition at 15 µM (HLA-A3303; A3303): 70%
- IC50 (HLA-A3303): < 5 µM
- inhibition at 5 µM (HLA-A3101; [1]): 60.2%
- inhibition at 15 µM (HLA-A3101; [2]): 88.3%
- IC50 (HLA-A3101): < 5 µM

Compound: MVHQPISPR [Peptide P103]
- inhibition at 5 µM (HLA-A3303; A3303): 70.2%
- inhibition at 15 µM (HLA-A3303; A3303): 99.5%
- IC50 (HLA-A3303): < 5 µM
- inhibition at 5 µM (HLA-A1102; [3]): 3.81%
- inhibition at 15 µM (HLA-A1102; [4]): 13.4%
- inhibition at 5 µM (HLA-A3101; [1]): 65.4%
- inhibition at 15 µM (HLA-A3101; [2]): 79.2%
- IC50 (HLA-A3101): < 5 µM

Compound: NLKTGKYAR [Peptide P101]
- 5-μM inhibition (%) (HLA-A3101; [1]): 32.90%
- 15-μM inhibition (%) (HLA-A3101; [2]): 41.10%

Compound: QIINMWQEV [Peptide P73]
- 5-μM inhibition (%) (HLA-A0206): 25.71%
- 15-μM inhibition (%) (HLA-A0206): 27.84%
